# Values of other authors in patent publication US20240417323A1, “BUBBLE-CONTAINING GYPSUM SLURRY” (KAO CORPORATION, priority 2022, published 2024).
# Conditions: 1-octanol/water; measured value if any, otherwise C log P calculated by C LOG P v 4.01
row,SMILES,Log P
1,"CCC(C)(C)CO [2,2-dimethyl-1-butanol]",1.57
2,CCC(CC)CO [2-ethyl-1-butanol],1.75
3,CCCC(C)CO (centres unmarked) [2-methyl-1-pentanol],1.75
4,CCCC(C)(C)O [2-methyl-2-pentanol],1.57
5,CCC(O)C(C)C (centres unmarked) [2-methyl-3-pentanol],1.57
6,CCC(C)CCO (centres unmarked) [3-methyl-1-pentanol],1.75
7,CC(C)C(C)O (centres unmarked) [3-methyl-2-butanol],1.28
8,CCC(C)C(C)O (centres unmarked) [3-methyl-2-pentanol],1.57
9,CCC(C)(O)CC [3-methyl-3-pentanol],1.57
10,CC(C)CCCO [4-methyl-1-pentanol],1.75
11,CC(C)CC(C)O (centres unmarked) [4-methyl-2-pentanol],1.57
12,CC(C)CCCCCO [6-methyl-1-heptanol],2.73
13,"CCCCCCCO [Example 1-heptanol, 1-heptanol]",2.62
14,CCCC=O [butanal],0.88
15,CCCCOCC [butyl ethyl ether],2.03
16,CCCCOC(=O)C(C)O (centres unmarked) [butyl lactate],0.8
17,OC1CCCC1 [cyclopentanol],0.71
18,CC(C)OC(C)C [diisopropyl ether],1.52
19,COC [dimethyl ether],0.1
20,CCCCCC=O [hexanal],1.78
